In patent US9023789B2, “Amylin analogs and pharmaceutical compositions thereof” (Novo Nordisk A/S, priority 2012, dated 2015):
“Also recorded” adds a separate entry of the source. Like-named read-outs stand apart in the source and are kept apart here. Bridge positions count the residues as written; N and C are the ends. Ends that are not written are not given here.

Legend:
Male Wistar rats = assay: ASSAY (XII) effect from single subcutaneous administration on plasma calcium in rats; type: in vivo, rat; conditions: for Plasma calcium red (%) 0-12 h (maximal): single s.c., compared to vehicle
Description: Assay (XII)—Effect from Single Subcutaneous Administration of Analogue on Plasma Calcium in Rats
Male Wistar rats (Taconic Europe, ˜250 g at test date) were acclimatized to handling prior to the study. Rats were divided in groups of five and subcutaneously dosed with test compound at time=0. At time T=−15 min; 1 h, 2 h, 4 h, 7 h, 12 h, and 24 h a blood sample was obtained and heparin stabilized plasma was analysed for total calcium (Cobas, Hitachi). Data are illustrated in graphs as mean±SEM.

Male Sprague-Dawley rats = assay: ASSAY (XI) single subcutaneous administration, food intake monitored for 48 hours in rats; type: in vivo, rat; conditions: for Food intake red (%) 0-24 h / Food intake red (%) 24-48 h: single s.c., compared to vehicle
Text: Assay (XI)—Effect from Single Subcutaneous Administration of Analogue on Plasma Calcium in Rats
Male Sprague-Dawley rats (Taconic Europe, ˜250 g at test date) were acclimatized to reversed day light cycle (lights on from 10 PM to 10 AM) and single housing in online food intake monitoring system (Ellegaard MBRose, Denmark) prior to study start. […] Data are illustrated in graphs as mean±SEM.

Sprague Dawley (SD) rats = assay: ASSAY (I) efficacy testing on appetite (food intake) using an ad libitum fed rat model; type: in vivo; conditions: rats, single subcutaneous 1000 nmol/kg injection
Text: Sprague Dawley (SD) rats from Taconic Europe, Denmark are used for the experiments. The rats have a body weight 200-250 g at the start of experiment. The rats arrive at least 10-14 days before start of experiment to allow acclimatization to experimental settings. During this period the animals are handled at least 2 times. After arrival rats are housed individually for one week in a reversed light/dark phase (meaning that lights are off during daytime and on during nighttime) for two weeks. Since rats are normally active and eat their major part of their daily food intake during the dark period, rats are dosed in the morning right before lights are turned off. This set-up results in the lowest data variation and highst test sensitivity. The experiment is conducted in the rats' home cages and rats have free access to food and water throughout the acclimatization period and the experiment period. Each dose of derivative is tested in a group of 5-8 rats. A vehicle group of 6-8 rats is included in each set of testing. Rats are dosed once according to body weight with a 0.01-3 mg/kg solution administered intraperitoneally (ip), orally (po) or subcutaneously (sc). The time of dosing is recorded for each group. After dosing, the rats are returned to their home cages, where they then have access to food and water. The food consumption is recorded individually continuously by online registration or manually every hour for 7 hours, and then after 24 h and sometimes 48 h. At the end of the experimental session, the animals are euthanized.
The individual data are recorded in Microsoft excel sheets. Outliers are excluded after applying the Grubbs statistical evaluation test for outliers, and the result is presented graphically using the GraphPad Prism program.

[1] = system: amylin receptor / calcitonin receptor; conditions: background statement, cited from earlier work

Compound | plasma calcium (Male Wistar rats; dose 30 nmol/kg) | Plasma calcium red (%) 0-12 h (maximal) (Male Wistar rats; 3 nmol/kg) [%] | Plasma calcium red (%) 0-12 h (maximal) (Male Wistar rats; 30 nmol/kg) [%] | Food intake red (%) 0-24 h (Male Sprague-Dawley rats; 30 nmol/kg) [%] | Food intake red (%) 24-48 h (Male Sprague-Dawley rats; 30 nmol/kg) [%] | food intake monitored over 48 hours (Male Sprague-Dawley rats; single subcutaneous administration, 30 nmol/kg, versus vehicle) | reduction of food intake (Sprague Dawley (SD) rats) [%] | Plasma calcium red (%) 0-12 h (maximal) (Male Wistar rats; 1000 nmol/kg) [%] | potency on the amylin receptor relative to the calcitonin receptor [1] | potency on the amylin receptor relative to the calcitonin receptor ([1]; listed as pramlintide) [times] | Food intake red (%) 0-24 h (Male Sprague-Dawley rats; 1000 nmol/kg) [%] | Food intake red (%) 24-48 h (Male Sprague-Dawley rats; 1000 nmol/kg) [%]
CC(C)C[C@H](NC(=O)[C@H](CCCCN)NC(=O)CNC(=O)[C@H](CC(C)C)NC(=O)[C@@H](NC(=O)[C@@H]1CSSC[C@H](N)C(=O)N[C@@H](CO)C(=O)N[C@@H](CC(N)=O)C(=O)N[C@@H](CC(C)C)C(=O)N[C@@H](CO)C(=O)N[C@@H]([C@@H](C)O)C(=O)N1)C(C)C)C(=O)N[C@@H](CO)C(=O)N[C@@H](CCC(N)=O)C(=O)N[C@@H](CCC(=O)O)C(=O)N[C@@H](CC(C)C)C(=O)N[C@@H](Cc1c[nH]cn1)C(=O)N[C@@H](CCCCN)C(=O)N[C@@H](CC(C)C)C(=O)N[C@@H](CCC(N)=O)C(=O)N[C@H](C(=O)N[C@@H](Cc1ccc(O)cc1)C(=O)N1CCC[C@H]1C(=O)N[C@@H](CCCNC(=N)N)C(=O)N[C@H](C(=O)N[C@@H](CC(N)=O)C(=O)N[C@H](C(=O)NCC(=O)N[C@@H](CO)C(=O)NCC(=O)N[C@H](C(=O)N1CCC[C@H]1C(N)=O)[C@@H](C)O)[C@@H](C)O)[C@@H](C)O)[C@@H](C)O [salmon calcitonin, reference compound] | below 1.7 mM | 35 | 39 | 87 | 19 | reduction of food intake; also recorded: reduces food intake | – | – | – | – | – | –
Pramlintide (KCNTATCATQRLANFLVHSSNNFGPILPPTNVGSNTY-NH2; disulfide 2-7; UniProt P10997 34-70, looked up, variant A25P S28P S29P) [reference compound] | – | – | – | – | – | – | 25 | 28 | approximately 14 times | 14 | 25 | 0
